# In patent US5364615A (priority 1992, dated 1994):
# Tests used:
# [1] = tested on: Pneumocystis carinii; assay: Randomized clinical trial of PCP prophylaxis (Example 8); format: in vivo, human
# [2] = literature, cited from earlier work
# [3] = tested on: Pneumocystis carinii; assay: Prevention of PCP, different dosages and regimens (Example 6); format: in vivo, human
# Description: A total of 438 participants were selected on the basis of seropositivity for HIV, and were stratified on the basis of (i) prior PCP (n=250), (ii) Kaposi's sarcoma (n=59), or (iii) ARC (n=129).
# [4] = in vivo
# [5] = Delivery efficiency, nebulizer retention and lung half-life of aerosolized pentamidine; parameters: species or system human
# Description: As indicated above, Pneumocystis carinii infect the alveoli. […] It should also be understood that the amount of pentamidine deposited in the alveoli may be substantially less than the total amount aerosolized since a large portion is exhaled by the patient or is trapped on the interior surfaces of the nebulizer apparatus. […] This is true regardless of the dose size, duration of inhalation, and type of nebulizer used, Respirgard or Ultravent. […] Furthermore, even with minimization of airway deposition, there is a portion which is still deposited in the patient's airways.
# The "amount nebulized" or "amount aerosolized" of the drug means the amount that actually leaves the apparatus as an aerosol, i.e., the amount placed into the apparatus less the amount retained in the reservoir and on the inner surfaces of the apparatus at the conclusion of a treatment session. "[…] of pentamidine delivered to the alveoli" refers to the amount of drug that is estimated to actually reach the alveoli.
# [6] = all strata, intention to treat, all PCP, 30 mg
# [7] = all strata, intention to treat, all PCP, 150 mg
# [8] = all strata, intention to treat, all PCP, 300 mg, p .02 (30 vs 300 mg)
# [9] = prior PCP strata, eligible, PCP within 60 days, 30 mg
# [10] = prior PCP strata, eligible, PCP within 60 days, 150 mg
# [11] = prior PCP strata, eligible, PCP within 60 days, 300 mg, p .006 (30 vs 300 mg)
# [12] = prior PCP strata, eligible, confirmed PCP within 60 days, 30 mg
# [13] = prior PCP strata, eligible, confirmed PCP within 60 days, 150 mg
# [14] = prior PCP strata, eligible, confirmed PCP within 60 days, 300 mg, p .002 (30 vs 300 mg)
# [15] = prior PCP strata, intention to treat, all PCP, 30 mg
# [16] = prior PCP strata, intention to treat, all PCP, 150 mg
# [17] = prior PCP strata, intention to treat, all PCP, 300 mg, p .02 (30 vs 300 mg)
smiles,measurement,setting,value
"N=C(N)c1ccc(OCCCCCOc2ccc(C(=N)N)cc2)cc1 [pentamidine, p,p'-(pentamethylenedioxy)dibenzamidine]",PCP (participants),"[1]; all strata, eligible, confirmed PCP within 60 days, 300 mg, p .0008 (30 vs 300 mg)",8
same,No PCP (participants),[1]; [6],94
same,PCP (participants),[1]; [6],41
same,No PCP (participants),[1]; [7],102
same,PCP (participants),[1]; [7],32
same,No PCP (participants),[1]; [8],111
same,PCP (participants),[1]; [8],28
same,Relative Hazard of PCP: Cox regression,"[1]; all strata, intention to treat, 30 vs 300",1.78
same,Relative Hazard of PCP: Cox regression,"[1]; all strata, intention to treat, 30 vs. 150",1.21
same,developed PCP,"[1]; initial CD4 counts greater than 200, no prior PCP, two of 39",5.1%
same,developed PCP,"[1]; initial CD4 counts less than 200, no prior PCP, 12 of 89",13%
same,all cause mortality,[1]; other HIV stratum,13%
same,Relative Hazard of PCP: Cox regression,"[1]; prior PCP strata, confirmed PCP on study drug, 30 vs 300",4.57
same,Relative Hazard of PCP: Cox regression,"[1]; prior PCP strata, confirmed PCP on study drug, 30 vs. 150",2.10
same,No PCP (participants),[1]; [9],42
same,PCP (participants),[1]; [9],25
same,No PCP (participants),[1]; [10],51
same,PCP (participants),[1]; [10],16
same,No PCP (participants),[1]; [11],60
same,PCP (participants),[1]; [11],14
same,No PCP (participants),[1]; [12],47
same,PCP (participants),[1]; [12],20
same,No PCP (participants),[1]; [13],53
same,PCP (participants),[1]; [13],14
same,No PCP (participants),[1]; [14],66
same,PCP (participants),[1]; [14],8
same,No PCP (participants),[1]; [15],46
same,PCP (participants),[1]; [15],33
same,No PCP (participants),[1]; [16],54
same,PCP (participants),[1]; [16],24
same,No PCP (participants),[1]; [17],59
same,PCP (participants),[1]; [17],21
same,Relative Hazard of PCP: Cox regression,"[1]; prior PCP strata, intention to treat, 30 vs 300",2.11
same,Relative Hazard of PCP: Cox regression,"[1]; prior PCP strata, intention to treat, 30 vs. 150",1.40
same,all cause mortality,[1]; prior PCP stratum,53%
same,hazard of PCP by start of therapy,"[1]; start within 3 months of prior PCP vs later, Cox model",less than half the hazard of PCP
same,"time to PCP relapse, median",[1]; starting prophylaxis within 3 months of prior PCP,240 days
same,"time to PCP relapse, median",[1]; starting with a longer interval since prior episode,143 days
same,"Toxicity Req Change of Therapy, %",[2],55%
same,rate of severe reactions,"[2]; parenteral pentamidine, TMP-SMX",50%
same,mortality rate,[3]; 372 participants,1.6%
same,relapse rate,"[3]; 372 participants, at least one treatment",4.6%
same,deaths due to PCP,"[3]; ARC, group a, 30 mg",1
same,PCP Events,"[3]; ARC, group a, 30 mg every two weeks",2
same,PCP Events,"[3]; ARC, group b, 150 mg every two weeks",0
same,PCP Events,"[3]; ARC, group c, 300 mg every four weeks",0
same,PCP Events,"[3]; Kaposi's, group a, 30 mg every two weeks",0
same,PCP Events,"[3]; Kaposi's, group b, 150 mg every two weeks",1
same,PCP Events,"[3]; Kaposi's, group c, 300 mg every four weeks",0
same,relapse rate,[3]; at least three treatments,3.2%
same,participants experiencing relapse,[3]; of 372 participants,17
same,relapse rate,"[3]; prior PCP, at least one treatment, historical controls 24.3%",5.9%
same,relapse rate,"[3]; prior PCP, three or more treatments",4.2%
same,deaths due to PCP,"[3]; prior PCP, group a, 30 mg",1
same,PCP Events,"[3]; prior PCP, group a, 30 mg every two weeks",6
same,deaths due to PCP,"[3]; prior PCP, group b, 150 mg",3
same,PCP Events,"[3]; prior PCP, group b, 150 mg every two weeks",5
same,deaths due to PCP,"[3]; prior PCP, group c, 300 mg",1
same,PCP Events,"[3]; prior PCP, group c, 300 mg every four weeks",3
same,"adverse systemic reactions (renal, liver, hematologic, hypoglycemia, hypotension)",[4],No adverse systemic reactions
same,coughing with larger particles,[4],most subjects began coughing within a few breaths
same,amount delivered to the alveoli,"[5]; 300 mg placed in nebulizer, estimate",about 21 mg
same,absorbed dose,"[5]; 600 mg in 6 mL, Respirgard II, 3-4 mL nebulized, estimate",45 to 60 mg
same,amount delivered to the alveoli,"[5]; 600 mg placed in nebulizer, estimate",about 42 mg
same,dose remaining in the nebulizer after inhalation,"[5]; Respirgard or UltraVent, regardless of dose",approximately one third of the pentamidine dose that is placed into the nebulizer remains in the nebulizer
same,fraction of total dose delivered to the alveoli,[5]; estimate based on Mallinckrodt technical specifications,about 7%
same,half-life,"[5]; human, lung, inhaled or intranasal, read-out: halflife in the lungs",21 to 42 days
same,efficiency of delivery by inhalation,"[5]; to alveoli, estimate",7-10%
